Ends that are not written are not given here.
System: human-derived chondrocytes (C28/I2, human chondrocyte cell line)
Experiment: CCK-8 cytotoxicity assay
Type: cell-based
Details: C28/I2 cells, different concentrations, 3 days, 450 nm
Method: The cytotoxicity of Peptide-1 or Peptide-2 upon addition to human-derived chondrocytes (C28/I2, human chondrocyte cell line) was analyzed using a CCK-8 assay.
Specifically, human-derived chondrocytes were seeded in a 96-well plate at a density of 3×10^3 cells/well and cultured in DMEM medium (cat. 11995-065, Gibco) for 24 hours. […] Meanwhile, as a negative control group, an experimental group to which the peptide was not added was used.

Substance | cytotoxicity (CCK-8 activity)
KFLIK [Peptide-2, KFLIK] | did not exhibit toxicity
PYYRI [Peptide-1, PYYRI] | did not exhibit toxicity

Source: patent US20260200979A1, “PEPTIDE FOR CARTILAGE REGENERATION, AND USES THEREOF” (CAREGEN CO., LTD., priority 2022, published 2026)
